# Measurements published in ChEMBL document CHEMBL3792365, “Dioxol and dihydrodioxin analogs of 2- and 3-phenylacetonitriles as potent anti-cancer agents with nanomolar activity against a variety of human cancer cells” (2016).
# Columns and labels:
# Assay type in all cases: functional
# [1] = Growth inhibition of human OVCAR8 cells at 10 uM after 48 hrs by sulforhodamine B assay; details: OVCAR-8, 48 h, values are per cent of control
# [2] = Growth inhibition of human SNB19 cells at 10 uM after 48 hrs by sulforhodamine B assay; details: SNB-19, 48 h, values are per cent of control
# SN12C = experiment: Growth inhibition of human SN12C cells at 10 uM after 48 hrs by sulforhodamine B assay; details: values are per cent of control
# SK-MEL-5 = experiment: Growth inhibition of human SK-MEL-5 cells at 10 uM after 48 hrs by sulforhodamine B assay; details: SK-MEL-5, 48 h, values are per cent of control
# [3] = Growth inhibition of human NCI-ADR-RES cells at 10 uM after 48 hrs by sulforhodamine B assay; details: values are per cent of control
# [4] = Growth inhibition of human SF539 cells at 10 uM after 48 hrs by sulforhodamine B assay; details: SF-539, 48 h, values are per cent of control
# [5] = Growth inhibition of human Caki1 cells at 10 uM after 48 hrs by sulforhodamine B assay; details: CAKI-1, 48 h, values are per cent of control
# NCI-H226 = experiment: Growth inhibition of human NCI-H226 cells at 10 uM after 48 hrs by sulforhodamine B assay; details: NCI-H226, 48 h, values are per cent of control
# [6] = Growth inhibition of human SW620 cells at 10 uM after 48 hrs by sulforhodamine B assay; details: SW-620, 48 h, values are per cent of control
# MDA-MB-468 = experiment: Growth inhibition of human MDA-MB-468 cells at 10 uM after 48 hrs by sulforhodamine B assay; details: MDA-MB-468, 48 h, values are per cent of control
# [7] = Growth inhibition of human HCT116 cells at 10 uM after 48 hrs by sulforhodamine B assay; details: HCT-116, 48 h, values are per cent of control
# [8] = Growth inhibition of human BT549 cells at 10 uM after 48 hrs by sulforhodamine B assay; details: BT-549, 48 h, values are per cent of control
# [9] = Growth inhibition of human DU145 cells at 10 uM after 48 hrs by sulforhodamine B assay; details: DU-145, 48 h, values are per cent of control
# [10] = Growth inhibition of human COLO205 cells at 10 uM after 48 hrs by sulforhodamine B assay; details: COLO 205, 48 h, values are per cent of control
# 786-0 = experiment: Growth inhibition of human 786-0 cells at 10 uM after 48 hrs by sulforhodamine B assay; details: 786-0, 48 h, values are per cent of control
# [11] = Growth inhibition of human SNB75 cells at 10 uM after 48 hrs by sulforhodamine B assay; details: SNB-75, 48 h, values are per cent of control
# [12] = Growth inhibition of human LOXIMVI cells at 10 uM after 48 hrs by sulforhodamine B assay; details: LOX IMVI, values are per cent of control
# [13] = Growth inhibition of human SF268 cells at 10 uM after 48 hrs by sulforhodamine B assay; details: SF-268, 48 h, values are per cent of control
# [14] = Growth inhibition of human OVCAR5 cells at 10 uM after 48 hrs by sulforhodamine B assay; details: OVCAR-5, 48 h, values are per cent of control
# [15] = Growth inhibition of human HOP62 cells at 10 uM after 48 hrs by sulforhodamine B assay; details: HOP-62, 48 h, values are per cent of control
# [16] = Growth inhibition of human TK10 cells at 10 uM after 48 hrs by sulforhodamine B assay; details: TK-10, 48 h, values are per cent of control
# MDA-MB-231 = experiment: Growth inhibition of human MDA-MB-231 cells at 10 uM after 48 hrs by sulforhodamine B assay; details: MDA-MB-231, 48 h, values are per cent of control
# [17] = Growth inhibition of human UO31 cells at 10 uM after 48 hrs by sulforhodamine B assay; details: UO-31, 48 h, values are per cent of control
# KM12 = experiment: Growth inhibition of human KM12 cells at 10 uM after 48 hrs by sulforhodamine B assay; details: KM12, 48 h, values are per cent of control
# U-251 = experiment: Growth inhibition of human U251 cells at 10 uM after 48 hrs by sulforhodamine B assay; details: U-251, 48 h, values are per cent of control
# K562 = experiment: Growth inhibition of human K562 cells at 10 uM after 48 hrs by sulforhodamine B assay; details: K562, 48 h, values are per cent of control
# [18] = Growth inhibition of human OVCAR4 cells at 10 uM after 48 hrs by sulforhodamine B assay; details: OVCAR-4, 48 h, values are per cent of control
# HT-29 = experiment: Growth inhibition of human HT-29 cells at 10 uM after 48 hrs by sulforhodamine B assay; details: HT-29, 48 h, values are per cent of control
# NCI-H322M = experiment: Growth inhibition of human NCI-H322M cells at 10 uM after 48 hrs by sulforhodamine B assay; details: values are per cent of control
# SK-MEL-2 = experiment: Growth inhibition of human SK-MEL-2 cells at 10 uM after 48 hrs by sulforhodamine B assay; details: SK-MEL-2, 48 h, values are per cent of control
# [19] = Growth inhibition of human SF295 cells at 10 uM after 48 hrs by sulforhodamine B assay; details: SF-295, 48 h, values are per cent of control
# M14 = experiment: Growth inhibition of human M14 cells at 10 uM after 48 hrs by sulforhodamine B assay; details: M14, 48 h, values are per cent of control
# SK-MEL-28 = experiment: Growth inhibition of human SK-MEL-28 cells at 10 uM after 48 hrs by sulforhodamine B assay; details: SK-MEL-28, 48 h, values are per cent of control
# NCI-H460 = experiment: Growth inhibition of human NCI-H460 cells at 10 uM after 48 hrs by sulforhodamine B assay; details: NCI-H460, 48 h, values are per cent of control
# ACHN = experiment: Growth inhibition of human ACHN cells at 10 uM after 48 hrs by sulforhodamine B assay; details: values are per cent of control
# A498 = experiment: Growth inhibition of human A498 cells at 10 uM after 48 hrs by sulforhodamine B assay; details: A498, 48 h, values are per cent of control
# MDA-MB-435 = experiment: Growth inhibition of human MDA-MB-435 cells at 10 uM after 48 hrs by sulforhodamine B assay; details: MDA-MB-435, 48 h, values are per cent of control
# A549 = experiment: Growth inhibition of human A549/ATCC cells at 10 uM after 48 hrs by sulforhodamine B assay; details: A549, 48 h, values are per cent of control
# [20] = Growth inhibition of human RXF393 cells at 10 uM after 48 hrs by sulforhodamine B assay; details: RXF 393, 48 h, values are per cent of control
# [21] = Growth inhibition of human SKOV3 cells at 10 uM after 48 hrs by sulforhodamine B assay; details: SK-OV-3, 48 h, values are per cent of control
Structure (SMILES),"growth, % of control at 10 µM [1]","growth, % of control at 10 µM [2]","growth, % of control at 10 µM (SN12C)","growth, % of control at 10 µM (SK-MEL-5)","growth, % of control at 10 µM [3]","growth, % of control at 10 µM [4]","growth, % of control at 10 µM [5]","growth, % of control at 10 µM (NCI-H226)","growth, % of control at 10 µM [6]","growth, % of control at 10 µM (MDA-MB-468)","growth, % of control at 10 µM [7]","growth, % of control at 10 µM [8]","growth, % of control at 10 µM [9]","growth, % of control at 10 µM [10]","growth, % of control at 10 µM (786-0)","growth, % of control at 10 µM [11]","growth, % of control at 10 µM [12]","growth, % of control at 10 µM [13]","growth, % of control at 10 µM [14]","growth, % of control at 10 µM [15]",other results
N#C/C(=C\c1ccc2c(c1)OCO2)c1ccc2c(c1)OCO2,83.8%,95.9%,90.7%,75.9%,41%,79.4%,66.8%,94.9%,42.9%,54.9%,57.5%,49.6%,92.5%,59.8%,90%,94.3%,65.1%,81.2%,97.9%,76.7%,"growth, % of control at 10 µM [16]: 91%; growth, % of control at 10 µM (MDA-MB-231): 66.8%; growth, % of control at 10 µM [17]: 86.7%; growth, % of control at 10 µM (KM12): 42.2%; growth, % of control at 10 µM (U-251): 77.2%; growth, % of control at 10 µM (K562): 24.9%; growth, % of control at 10 µM [18]: 89.7%; growth, % of control at 10 µM (HT-29): 39.6%; growth, % of control at 10 µM (NCI-H322M): 106%; growth, % of control at 10 µM (SK-MEL-2): 63.5%; growth, % of control at 10 µM [19]: 76.5%; growth, % of control at 10 µM (M14): 50.8%; growth, % of control at 10 µM (SK-MEL-28): 88.5%; growth, % of control at 10 µM (NCI-H460): 83.6%; growth, % of control at 10 µM (ACHN): 96.2%; growth, % of control at 10 µM (A498): 73.7%; growth, % of control at 10 µM (MDA-MB-435): -5.7%; growth, % of control at 10 µM (A549): 59.5%; growth, % of control at 10 µM [20]: 94.7%; growth, % of control at 10 µM [21]: 85.5%"
COc1ccc(/C=C(\C#N)c2ccc3c(c2)OCO3)cc1OC,104%,105%,103%,103%,102%,103%,102%,114%,107%,104%,105%,91.8%,104%,106%,103%,87.5%,101%,99.5%,104%,97.6%,"growth, % of control at 10 µM [16]: 96.5%; growth, % of control at 10 µM (MDA-MB-231): 106%; growth, % of control at 10 µM [17]: 88%; growth, % of control at 10 µM (KM12): 96.2%; growth, % of control at 10 µM (U-251): 102%; growth, % of control at 10 µM (K562): 94.8%; growth, % of control at 10 µM [18]: 110%; growth, % of control at 10 µM (HT-29): 106%; growth, % of control at 10 µM (NCI-H322M): 96.8%; growth, % of control at 10 µM (SK-MEL-2): 102%; growth, % of control at 10 µM [19]: 105%; growth, % of control at 10 µM (M14): 106%; growth, % of control at 10 µM (SK-MEL-28): 116%; growth, % of control at 10 µM (NCI-H460): 106%; growth, % of control at 10 µM (ACHN): 111%; growth, % of control at 10 µM (A498): 96.5%; growth, % of control at 10 µM (MDA-MB-435): 96.1%; growth, % of control at 10 µM (A549): 96.6%; growth, % of control at 10 µM [20]: 111%; growth, % of control at 10 µM [21]: 105%"
COc1ccc(/C(C#N)=C/c2ccc3c(c2)OCCO3)cc1,77.1%,83.3%,72.1%,45%,34.4%,63.7%,64.2%,81.2%,28.8%,14.8%,38.8%,56.6%,84.7%,50.5%,80.2%,61.1%,56.7%,71.9%,88%,68.3%,"growth, % of control at 10 µM [16]: 65.2%; growth, % of control at 10 µM (MDA-MB-231): 68.4%; growth, % of control at 10 µM [17]: 73.2%; growth, % of control at 10 µM (KM12): 27.8%; growth, % of control at 10 µM (U-251): 36.3%; growth, % of control at 10 µM (K562): 18.7%; growth, % of control at 10 µM [18]: 94.6%; growth, % of control at 10 µM (HT-29): 21.8%; growth, % of control at 10 µM (NCI-H322M): 77.5%; growth, % of control at 10 µM (SK-MEL-2): 36%; growth, % of control at 10 µM [19]: 66.7%; growth, % of control at 10 µM (M14): 38.5%; growth, % of control at 10 µM (SK-MEL-28): 75.3%; growth, % of control at 10 µM (NCI-H460): 33.4%; growth, % of control at 10 µM (ACHN): 87.7%; growth, % of control at 10 µM (A498): 70.9%; growth, % of control at 10 µM (MDA-MB-435): -29.8%; growth, % of control at 10 µM (A549): 41.5%; growth, % of control at 10 µM [20]: 77.3%; growth, % of control at 10 µM [21]: 81%"
